Test results as given in article PMC4955148, “Identification and functional characterization of novel xylose transporters from the cell factories Aspergillus niger and Trichoderma reesei” (Biotechnology for Biofuels, 2016).

Tested on: T1, AnXltB
T1 construct: gene xltB; whole-cell uptake
Experiment: […]-sugar initial uptake ([…] s) in yeast, Michaelis-Menten fit
Assay type: cell-based, Aspergillus niger
Details: labelled compound; transport into intact cells; 100 mM PBS pH 6.5, 30 °C; read-out: Xylose initial uptake kinetics / K m

Km: 15 ± 4.5 mM
Compound: OC1OC[C@@H](O)[C@H](O)[C@H]1O (stereo partly shown) [xylose]
